| SMILES | melting point |
| --- | --- |
| Cc1oc(-c2ccccc2)nc1COc1ccc(CCCO/N=C(\C(=O)O)c2ccccc2)cc1 [Example 2, Z-2-[3-[4-(5-methyl-2-phenyl-4-oxazolylmethoxy)phenyl]propoxyimino]-2-phenylacetic acid] | 165 to 166 °C (dec.) |
| CN(CCOc1ccc(CO/N=C(\C(=O)O)c2ccccc2)cc1)c1ccccn1 [Example 3, Z-2-[4-[2-(methyl-2-pyridylamino)ethoxy]benzyloxyimino]-2-phenylacetic acid] | 93 to 94 °C |
| Cc1oc(-c2ccccc2)nc1COc1ccc(CO/N=C(\Cc2ccccc2)C(=O)O)cc1 [Example 6, E-2-[4-(5-methyl-2-phenyl-4-oxazolylmethoxy)benzyloxyimino]-3-phenylpropionic acid] | 143 to 144 °C (dec.) |
| CCCC/C(=N\OCc1ccc(OCc2nc(-c3ccccc3)oc2C)cc1)C(=O)O [Example 8, E-2-[4-(5-methyl-2-phenyl-4-oxazolylmethoxy)benzyloxyimino]hexanoic acid] | 112 to 114 °C |
| C/C(=N\OCc1ccc(OCc2nc(-c3ccccc3)oc2C)cc1)C(=O)O [Example 9, E-2-[4-(5-methyl-2-phenyl-4-oxazolylmethoxy)benzyloxyimino]propionic acid] | 147 to 148 °C |
| Cc1oc(-c2ccccc2)nc1COc1ccc(CO/N=C(\C(=O)O)c2cccc(Oc3ccccc3)c2)cc1 [Example 13, Z-2-[4-(5-methyl-2-phenyl-4-oxazolylmethoxy)benzyloxyimino]-2-(3-phenoxyphenyl)acetic acid] | 173 to 174 °C (dec.) |
| Cc1oc(-c2ccccc2)nc1COc1ccc(CO/N=C(/C(=O)O)c2cccc(Oc3ccccc3)c2)cc1 [Example 14, E-2-[4-(5-methyl-2-phenyl-4-oxazolylmethoxy)benzyloxyimino]-2-(3-phenoxyphenyl)acetic acid] | 55 to 65 °C |
| Cc1oc(-c2ccccc2)nc1COc1ccc(CO/N=C(\C(=O)O)c2ccc(F)cc2)cc1 [Example 15, Z-2-(4-fluorophenyl)-2-[4-(5-methyl-2-phenyl-4-oxazolylmethoxy)benzyloxyimino]acetic acid] | 182 to 183 °C (dec.) |
| Cc1oc(-c2ccccc2)nc1COc1ccc(CO/N=C(/C(=O)O)c2ccc(F)cc2)cc1 [Example 16, E-2-(4-fluorophenyl)-2-[4-(5-methyl-2-phenyl-4-oxazolylmethoxy)benzyloxyimino]acetic acid] | 150 to 151 °C (dec.) |
| Cc1oc(-c2ccccc2)nc1COc1ccc(CO/N=C(\CCCC(=O)O)c2ccccc2)cc1 [Example 18, E-5-[4-(5-methyl-2-phenyl-4-oxazolylmethoxy)benzyloxyimino]-5-phenylpentanoic acid] | 129 to 130 °C |
| CCOC(=O)/C(=N\OCc1ccc(OCc2nc(-c3ccccc3)oc2C)cc1)c1ccc(OC)cc1 [Example 19, ethyl Z-2-(4-methoxyphenyl)-2-[4-(5-methyl-2-phenyl-4-oxazolylmethoxy)benzyloxyimino]acetate] | 102 to 103 °C |
| CCOC(=O)/C(=N/OCc1ccc(OCc2nc(-c3ccccc3)oc2C)cc1)c1ccc(Br)cc1 [Example 22, ethyl E-2-(4-bromophenyl)-2-[4-(5-methyl-2-phenyl-4-oxazolylmethoxy)benzyloxyimino]acetate] | 105 to 106 °C |
| COc1ccc(/C(=N/OCc2ccc(OCc3nc(-c4ccccc4)oc3C)cc2)C(=O)O)cc1 [Example 24, Z-2-(4-methoxyphenyl)-2-[4-(5-methyl-2-phenyl-4-oxazolylmethoxy)benzyloxyimino]acetic acid] | 183 to 184 °C |
| Cc1oc(-c2ccccc2)nc1COc1ccc(CO/N=C(\C(=O)O)c2ccc(-c3ccsc3)cc2)cc1 [Example 30, Z-2-[4-(5-methyl-2-phenyl-4-oxazolylmethoxy)benzyloxyimino]-2-[4-(3-thienyl)phenyl]acetic acid] | 205 to 206 °C (dec.) |
| Cc1oc(-c2ccccc2)nc1COc1ccc(CO/N=C(\C(=O)O)c2ccc(/C=C/c3ccccc3)cc2)cc1 [Example 31, Z-2-[4-(5-methyl-2-phenyl-4-oxazolylmethoxy)benzyloxyimino]-2-[4-(E-2-phenylethenyl)phenyl]acetic acid] | 194 to 195 °C (dec.) |
| Cc1oc(-c2ccccc2)nc1COc1ccc(CO/N=C(\C(=O)O)c2cccnc2)cc1 [Example 35, Z-2-[4-(5-methyl-2-phenyl-4-oxazolylmethoxy)benzyloxyimino]-2-(3-pyridyl)acetic acid] | 156 to 157 °C (dec.) |
| Cc1oc(-c2ccccc2)nc1COc1ccc(CO/N=C(/C(=O)O)c2cccnc2)cc1 [Example 37, E-2-[4-(5-methyl-2-phenyl-4-oxazolylmethoxy)benzyloxyimino]-2-(3-pyridyl)acetic acid] | 130 to 131 °C (dec.) |
| Cc1oc(-c2ccccc2)nc1COc1ccc(CO/N=C(\C(=O)O)c2cccc(C(=O)c3ccccc3)c2)cc1 [Example 40, Z-2-(3-benzoylphenyl)-2-[4-(5-methyl-2-phenyl-4-oxazolylmethoxy)benzyloxyimino]acetic acid] | 185 to 186 °C (dec.) |
| Cc1oc(-c2ccccc2)nc1COc1ccc(CO/N=C(\C(=O)O)c2cccc(Br)c2)cc1 [Example 43, Z-2-(3-bromophenyl)-2-[4-(5-methyl-2-phenyl-4-oxazolylmethoxy)benzyloxyimino]acetic acid] | 181 to 182 °C (dec.) |
| CCOC(=O)CC/C(=N\OCc1ccc(OCc2nc(-c3ccccc3)oc2C)cc1)c1ccc(Oc2ccccc2)cc1 [Example 46, ethyl E-4-[4-(5-methyl-2-phenyl-4-oxazolylmethoxy)benzyloxyimino]-4-(4-phenoxyphenyl)butyrate] | 118 to 119 °C |
| Cc1oc(-c2ccccc2)nc1COc1ccc(CO/N=C(\CCC(=O)O)c2ccc(Oc3ccccc3)cc2)cc1 [Example 47, E-4-[4-(5-methyl-2-phenyl-4-oxazolylmethoxy)benzyloxyimino]-4-(4-phenoxyphenyl)butyric acid] | 131 to 132 °C |
| COC(=O)CC/C(=N\OCc1ccc(OCCc2nc(-c3ccccc3)oc2C)cc1)c1ccccc1 [Example 48, methyl E-4-[4-[2-(5-methyl-2-phenyl-4-oxazolyl)ethoxy]benzyloxyimino]-4-phenylbutyrate] | 73 to 74 °C |
| Cc1oc(-c2ccccc2)nc1CCOc1ccc(CO/N=C(\CCC(=O)O)c2ccccc2)cc1 [Example 50, E-4-[4-[2-(5-methyl-2-phenyl-4-oxazolyl)ethoxy]benzyloxyimino]-4-phenylbutyric acid] | 106 to 107 °C |
| CN(CCOc1ccc(CO/N=C(\CCC(=O)O)c2ccccc2)cc1)c1ncccn1 [Example 51, E-4-[4-[2-(methyl-2-pyrimidylamino)ethoxy]benzyloxyimino]-4-phenylbutyric acid] | 72 to 73 °C |
| Cc1oc(-c2ccccc2)nc1COc1ccc(CON=C(CC(=O)O)c2ccccc2)cc1 [Example 53, 3-[4-(5-methyl-2-phenyl-4-oxazolylmethoxy)benzyloxyimino]-3-phenylpropionic acid] | 107 to 108 °C |
| O=C(O)CC/C(=N\OCc1ccc(OCc2cn3c(Cl)cccc3n2)cc1)c1ccccc1 [Example 55, E-4-[4-(5-chloroimidazo[1,2-a]pyridin-2-ylmethoxy)benzyloxyimino]-4-phenylbutyric acid] | 160 to 161 °C |

Reference: US6924300B2, “Oxyiminoalkanoic acid derivatives” (Takeda Chemical Industries, Ltd., priority 1998, dated 2005)
